“And” between values parts separate entries of the source, which are not always exact repeats. Identical values can stand only once. Like-named read-outs stand apart in the source and are kept apart here.
Experiments:
Type in all cases: cell-based
α1β1R41N GABAA receptors = biological target: T1, α1β1R41N GABAA receptors (Rattus norvegicus, UniProt P15431+P62813, R66N); test: Two electrode voltage clamp in Xenopus laevis oocytes, mutant α1β1R41N; conditions: read-out: % of control current at EC3-5
T1 construct: expressed in transfected cells; host or cells: Xenopus laevis oocytes, mRNA injected
T1 sequence (P62813 28-455): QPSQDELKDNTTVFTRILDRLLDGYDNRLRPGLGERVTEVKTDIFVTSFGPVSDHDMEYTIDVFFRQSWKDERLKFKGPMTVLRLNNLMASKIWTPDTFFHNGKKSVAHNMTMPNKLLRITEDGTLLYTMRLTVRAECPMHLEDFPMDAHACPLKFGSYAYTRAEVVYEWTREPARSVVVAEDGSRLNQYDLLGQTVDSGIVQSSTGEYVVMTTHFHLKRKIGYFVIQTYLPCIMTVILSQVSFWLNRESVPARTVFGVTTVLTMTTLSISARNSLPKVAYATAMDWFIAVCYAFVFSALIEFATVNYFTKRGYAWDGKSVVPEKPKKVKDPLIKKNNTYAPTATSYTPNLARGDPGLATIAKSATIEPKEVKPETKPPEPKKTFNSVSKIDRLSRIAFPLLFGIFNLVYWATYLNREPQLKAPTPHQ
T1 sequence (P15431 26-474 R66N): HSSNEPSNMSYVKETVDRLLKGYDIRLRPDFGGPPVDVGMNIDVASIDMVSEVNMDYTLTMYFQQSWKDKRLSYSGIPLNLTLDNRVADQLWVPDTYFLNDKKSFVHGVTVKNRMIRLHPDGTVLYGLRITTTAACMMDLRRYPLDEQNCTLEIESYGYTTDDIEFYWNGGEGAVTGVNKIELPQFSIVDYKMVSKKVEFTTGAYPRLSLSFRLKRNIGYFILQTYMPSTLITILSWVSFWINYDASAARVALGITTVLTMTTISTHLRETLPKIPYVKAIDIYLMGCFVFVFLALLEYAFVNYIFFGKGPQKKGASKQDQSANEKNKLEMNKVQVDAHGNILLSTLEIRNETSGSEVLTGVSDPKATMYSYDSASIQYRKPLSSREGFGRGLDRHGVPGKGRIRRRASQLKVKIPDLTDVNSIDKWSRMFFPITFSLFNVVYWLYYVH
Summary of the method: (§1)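 Currents are recorded in NDE medium (96 mM NaCl, 2 mM KCl, 1 mM MgCl2, 1.8 mM CaCl2, 5 mM HEPES, pH 7.5). Receptors come from 4.5 ng of injected cRNA, mixed 1:1 (αβ) or 1:1:5 (αβγ2).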

α1β2 GABAA receptors = biological target: T2, α1β2 GABAA receptors (Rattus norvegicus, UniProt P62813+P63138); test: Two electrode voltage clamp in Xenopus laevis oocytes, α1β2
T2 construct: expressed in transfected cells; host or cells: Xenopus laevis oocytes, mRNA injected
T2 sequence (P62813 28-455): as the sequence (P62813 28-455) above
T2 sequence (P63138 25-474 limits assumed): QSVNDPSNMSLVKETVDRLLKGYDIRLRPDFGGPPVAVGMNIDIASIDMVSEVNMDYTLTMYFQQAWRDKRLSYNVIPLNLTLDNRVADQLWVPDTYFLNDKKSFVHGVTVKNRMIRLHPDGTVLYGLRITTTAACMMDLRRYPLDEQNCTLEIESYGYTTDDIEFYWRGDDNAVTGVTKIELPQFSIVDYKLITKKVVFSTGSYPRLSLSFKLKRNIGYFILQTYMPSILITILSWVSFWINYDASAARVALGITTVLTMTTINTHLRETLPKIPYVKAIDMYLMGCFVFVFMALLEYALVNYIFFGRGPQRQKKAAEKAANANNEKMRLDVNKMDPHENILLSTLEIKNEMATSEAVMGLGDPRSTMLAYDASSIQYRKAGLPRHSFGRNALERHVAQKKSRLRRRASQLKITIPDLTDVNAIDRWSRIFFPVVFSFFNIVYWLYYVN
Summary of the method: as §1

α1β3N41R GABAA receptors = biological target: T3, α1β3N41R GABAA receptors (Rattus norvegicus, UniProt P62813+P63079, N66R); test: Two electrode voltage clamp in Xenopus laevis oocytes, mutant α1β3N41R; conditions: co-applied with GABA EC3-5, read-out: EC50 values for the mutated receptors
T3 construct: expressed in transfected cells; host or cells: Xenopus laevis oocytes, mRNA injected
T3 sequence (P62813 28-455): as the sequence (P62813 28-455) above
T3 sequence (P63079 26-473 N66R): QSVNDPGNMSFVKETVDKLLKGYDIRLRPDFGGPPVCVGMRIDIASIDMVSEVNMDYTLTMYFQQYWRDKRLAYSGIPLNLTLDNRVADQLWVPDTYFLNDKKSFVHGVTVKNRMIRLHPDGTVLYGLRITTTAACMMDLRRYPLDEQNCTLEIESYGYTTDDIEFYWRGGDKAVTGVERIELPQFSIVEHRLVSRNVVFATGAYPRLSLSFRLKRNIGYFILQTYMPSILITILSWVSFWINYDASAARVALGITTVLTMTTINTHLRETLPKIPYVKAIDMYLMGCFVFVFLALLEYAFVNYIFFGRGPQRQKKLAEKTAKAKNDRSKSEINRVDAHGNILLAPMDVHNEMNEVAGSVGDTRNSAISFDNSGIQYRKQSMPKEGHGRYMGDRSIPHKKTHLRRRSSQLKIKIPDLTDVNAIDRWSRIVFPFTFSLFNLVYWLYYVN
Summary of the method: (§2)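 Oocytes were injected with 4.5 ng of capped, polyadenylated rat subunit cRNA, mixed 1:1 for αβ and 1:1:5 for αβγ2 combinations. They were kept at 18 °C for 2–3 days (αβ) or 3–4 days (αβγ) and then recorded in Ca²⁺-containing NDE buffer at pH 7.5.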

α1β3 GABAA receptors = biological target: T4, α1β3 GABAA receptors (Rattus norvegicus, UniProt P62813+P63079); test: Two electrode voltage clamp in Xenopus laevis oocytes, α1β3
T4 construct: expressed in transfected cells; host or cells: Xenopus laevis oocytes, mRNA injected
T4 sequence (P62813 28-455): as the sequence (P62813 28-455) above
T4 sequence (P63079 26-473): as the sequence (P63079 26-473 N66R) above, with R41N counted along it
Summary of the method: as §2

α4β3γ2 GABAA receptors = biological target: T5, α4β3γ2 GABAA receptors (Rattus norvegicus, UniProt P28471+P63079); test: Two electrode voltage clamp in Xenopus laevis oocytes, α4β3γ2
T5 construct: expressed in transfected cells; host or cells: Xenopus laevis oocytes, mRNA injected
T5 sequence (P28471 36-552): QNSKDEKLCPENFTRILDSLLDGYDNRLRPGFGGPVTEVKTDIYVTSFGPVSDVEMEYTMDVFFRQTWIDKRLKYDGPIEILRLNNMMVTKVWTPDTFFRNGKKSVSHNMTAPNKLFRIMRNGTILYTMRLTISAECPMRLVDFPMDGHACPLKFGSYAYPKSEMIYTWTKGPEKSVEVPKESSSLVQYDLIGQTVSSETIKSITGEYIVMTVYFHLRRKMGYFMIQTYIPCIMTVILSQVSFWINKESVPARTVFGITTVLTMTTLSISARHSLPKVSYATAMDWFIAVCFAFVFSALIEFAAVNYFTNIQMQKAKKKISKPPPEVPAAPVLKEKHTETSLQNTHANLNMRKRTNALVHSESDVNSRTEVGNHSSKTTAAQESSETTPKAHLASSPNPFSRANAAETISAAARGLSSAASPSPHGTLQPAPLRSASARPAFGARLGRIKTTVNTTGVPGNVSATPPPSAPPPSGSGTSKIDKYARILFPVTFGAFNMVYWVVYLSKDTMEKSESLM
T5 sequence (P63079 26-473): as the sequence (P63079 26-473 N66R) above, with R41N counted along it
T5 sequence (P18508 39-466 partner): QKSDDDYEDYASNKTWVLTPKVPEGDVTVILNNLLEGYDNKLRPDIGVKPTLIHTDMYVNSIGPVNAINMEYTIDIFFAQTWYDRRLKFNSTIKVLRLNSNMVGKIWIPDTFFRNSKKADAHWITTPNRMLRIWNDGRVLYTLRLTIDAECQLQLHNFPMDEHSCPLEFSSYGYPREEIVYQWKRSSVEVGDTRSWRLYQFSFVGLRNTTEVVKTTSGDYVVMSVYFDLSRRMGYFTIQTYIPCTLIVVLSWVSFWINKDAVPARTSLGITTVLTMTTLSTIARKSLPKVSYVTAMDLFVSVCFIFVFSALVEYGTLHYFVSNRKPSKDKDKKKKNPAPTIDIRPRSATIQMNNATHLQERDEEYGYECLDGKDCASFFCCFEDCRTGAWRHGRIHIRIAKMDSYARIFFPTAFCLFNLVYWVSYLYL
Excerpt: (§3) cDNA’s of rat GABAA receptor subunits α1, α4, β1, β2, β3 and γ2S were cloned as described. cDNAs of the rat subunits α2, α3 and α5 were gifts from P. Malherbe, that of α6 and γ1 were gifts of P. Seeburg and that of δ was a gift of C. Czajkowski. The mutants were constructed using the Q5 Site-Directed Mutagenesis Kit (New England Biolabs) following manufacturer’s instruction. We used the wild-type rat β3-pCI vector as template and the primers […] and […] resulting in a substitution of amino acid N41 (AAC) to R (AGG). We used the wild-type rat β1-pCI vector as template and the primers […] and […] resulting in a substitution of amino acid R41 (CGG) to N (AAC). The mutated subunits were confirmed by sequencing.
(§4) In vitro transcription of mRNA was based on the cDNA expression vectors encoding for rat GABAA receptor subunits α1–6, β1-3, γ1,2, δ and the two β mutants (β1R41N and β3N41R)[40]. After linearizing the cDNA vectors with appropriate restriction endonucleases, the cDNA was purified and concentrated with the DNA Clean and Contentrator ^TM Kit (Zymoresearch, Catalog No. D4005). Capped transcripts of the purified cDNA were produced using the mMESSAGE mMACHINE® T7 transcription kit (Ambion, TX, USA) and polyadenylated using the Ambion PolyA tailing kit (Ambion). After transcription and polyadenylation the RNA was purified with the MEGAclear ^TM Kit (Ambion, Catalog No. AM1908). The final RNA concentration was measured on NanoDrop® ND-1000 and finally diluted and stored in diethylpyrocarbonate-treated water at −80 °C. For the microinjection, the RNA of αβ receptor combinations was mixed at 1:1 ratio (which leads to αβ receptors that consist of predominantly 3 beta and 2 alpha subunits[27]), for αkβlγm (k = 1–3, l = 1, 3, m = 1, 2) receptors at 1:1:5 ratio, for αkβ3γ2 (k = 4–6) and αkβlδ (k = 1, 4 and 6, l = 1, 3) receptor combinations at 3:1:5 ratio.
(§5) Mature female Xenopus laevis (Nasco, WI) were anesthetized in a bath of ice-cold 0.17% Tricain (Ethyl-m-aminobenzoate, Sigma, MO) before decapitation in full accordance with all rules of the Austrian animal protection law (see http://www.ris.bka.gv.at/Dokumente/BgblAuth/BGBLA_2012_I_114/BGBLA_2012_I_114.pdf) and the Austrian animal experiment by-laws (see https://www.ris.bka.gv.at/Dokumente/BgblAuth/BGBLA_2012_II_522/BGBLA_2012_II_522.pdf) which implement the European Directive 2010/63/EU (see http://eur-lex.europa.eu/LexUriServ/LexUriServ.do?uri=OJ:L:2010:276:0033:0079:en:PDF) into the Austrian law (all information accessed on July 27, 2016). The frog’s ovaries were transferred to ND96 medium (96 mM NaCl, 2 mM KCl, 1 mM MgCl2, 5 mM HEPES; pH 7.5). Stage 5–6 oocytes with the follicle cell layer around them were roughly dissected with forceps into packages of 10–15 cells and washed in Ca^2+-free ND96 medium. Cells were then digested with collagenase (type IA, Sigma, NO, 1 mg/mL ND96) at 18 °C shaking at 30 rpm for 30–60 minutes and gently defolliculated with the aid of a glass pipette with appropriate tip diameter and a platinum loop. Defolliculated cells were stored at 18 °C for at least 6 hours in ND96 solution containing penicillin G (10000 IU/100 mL) and streptomycin (10 mg/100 mL) in order to preselect and exclude damaged cells from further treatment. Healthy defolliculated oocytes were injected with an aqueous solution of mRNA. A total of 4.5 ng of mRNA per oocyte was injected with a Nanoject II (Drummond). After injection of mRNA, oocytes were incubated at 18 °C (ND96 + antibiotic) for 2–3 days for αβ receptors and for 3–4 days for αβγ or αβδ receptors before recording. When cells were measured at later time points, oocytes were stored at +4 °C instead of 18 °C.
(§6) For electrophysiological recordings, oocytes were placed on a nylon-grid in a bath of Ca^2+-containing NDE solution medium [96 mM NaCl, 5 mM HEPES-NaOH (pH 7.5), 2 mM KCl, 1 mM MgCl2, 1.8 mM CaCl2].

α2β3γ2 GABAA receptors = biological target: T6, α2β3γ2 GABAA receptors (Rattus norvegicus, UniProt P23576+P63079); test: Two electrode voltage clamp in Xenopus laevis oocytes, α2β3γ2
T6 construct: expressed in transfected cells; host or cells: Xenopus laevis oocytes, mRNA injected
T6 sequence (P23576 29-451): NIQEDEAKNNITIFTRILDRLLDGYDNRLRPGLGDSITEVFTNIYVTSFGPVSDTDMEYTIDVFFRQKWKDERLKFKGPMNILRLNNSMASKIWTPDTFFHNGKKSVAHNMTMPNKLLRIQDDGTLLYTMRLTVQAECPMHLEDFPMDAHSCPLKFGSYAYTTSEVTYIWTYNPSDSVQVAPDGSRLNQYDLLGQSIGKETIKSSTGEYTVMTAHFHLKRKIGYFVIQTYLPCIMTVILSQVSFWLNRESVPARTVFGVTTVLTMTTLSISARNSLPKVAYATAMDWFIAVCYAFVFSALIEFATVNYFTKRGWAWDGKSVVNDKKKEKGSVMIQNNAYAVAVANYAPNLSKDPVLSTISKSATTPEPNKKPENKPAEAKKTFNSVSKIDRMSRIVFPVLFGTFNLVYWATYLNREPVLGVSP
T6 sequence (P63079 26-473): as the sequence (P63079 26-473 N66R) above, with R41N counted along it
T6 sequence (P18508 39-466 partner): as the sequence (P18508 39-466 partner) above
Excerpt: as §3, §4, §5, §6

α1β1 GABAA receptors = biological target: T7, α1β1 GABAA receptors (Rattus norvegicus, UniProt P15431+P62813); test: Two electrode voltage clamp in Xenopus laevis oocytes, α1β1; conditions: α1β1
T7 construct: expressed in transfected cells; host or cells: Xenopus laevis oocytes, mRNA injected
T7 sequence (P62813 28-455): as the sequence (P62813 28-455) above
T7 sequence (P15431 26-474): as the sequence (P15431 26-474 R66N) above, with N41R counted along it
Summary of the method: as §1

## Cc1ccc(-n2nc3c4cc(Cl)ccc4[nH]cc-3c2=O)cc1 [Compound 2, 8-Chloro-2-(4-methylphenyl)-2H-pyrazolo[4,3-c]quinolin-3(5H)-one]
α1β1R41N GABAA receptors; 100nM
  current as % of control at 0.1 µM: 70 ± 5%
α1β1R41N GABAA receptors; 300nM
  current as % of control at 0.3 µM: 62 ± 8%
α1β1R41N GABAA receptors; 1μM
  current as % of control at 1 µM: 62 ± 8%
α1β1R41N GABAA receptors; 3µM
  current as % of control at 3 µM: 60 ± 9%
α1β1R41N GABAA receptors; 10μM
  current as % of control at 10 µM: 60 ± 10%
α1β1R41N GABAA receptors; 30μM
  current as % of control at 30 µM: 60 ± 8%
α1β2 GABAA receptors
  EC50: 4.31 µM
α1β2 GABAA receptors; read-out: efficacy, % of control current (GABA EC3-5 = 100%), α1β2, 100 nM
  activity at 0.1 µM: 105 ± 1.4%
α1β2 GABAA receptors; read-out: efficacy, % of control current (GABA EC3-5 = 100%), α1β2, 1 µM
  activity at 1 µM: 134 ± 8.2%
α1β2 GABAA receptors; α1β2
  Hill slope (nH): 2.0±0.9
α1β3N41R GABAA receptors
  EC50: 3.44 µM
α1β3 GABAA receptors; read-out: efficacy, % of control current (GABA EC3-5 = 100%), α1β3, 1 nM
  activity at 0.001 µM: 100.1 ± 0.1%
α1β3 GABAA receptors; read-out: efficacy, % of control current (GABA EC3-5 = 100%), α1β3, 3 nM
  activity at 0.003 µM: 100.1 ± 0.1%
α1β3 GABAA receptors; read-out: efficacy, % of control current (GABA EC3-5 = 100%), α1β3, 10 nM
  activity at 0.01 µM: 100.7 ± 0.5%
α1β3 GABAA receptors; read-out: efficacy, % of control current (GABA EC3-5 = 100%), α1β3, 100 nM
  activity at 0.1 µM: 109 ± 2.2%
α1β3 GABAA receptors; read-out: efficacy, % of control current (GABA EC3-5 = 100%), α1β3, 300 nM
  activity at 0.3 µM: 122 ± 5.4%
α1β3 GABAA receptors; read-out: efficacy, % of control current (GABA EC3-5 = 100%), α1β3, 1 µM
  activity at 1 µM: 151 ± 11.5%
α1β3 GABAA receptors; read-out: efficacy, % of control current (GABA EC3-5 = 100%), α1β3, 3 µM
  activity at 3 µM: 276 ± 41.7%
α1β3 GABAA receptors; read-out: efficacy, % of control current (GABA EC3-5 = 100%), α1β3, 10 µM
  activity at 10 µM: 372 ± 40.1%
α1β3 GABAA receptors; α1β3
  Hill slope (nH): 1.9±0.6
α1β3 GABAA receptors; α1β3, co-applied with GABA EC3-5, read-out: EC50
  EC50: 2.39 µM
α1β3 GABAA receptors; α1β3, log of EC50, sign as printed, read-out: LogEC50 (converted)
  EC50: 2.4 µM and 2.51 µM
α4β3γ2 GABAA receptors
  EC50: 13.4 µM
α4β3γ2 GABAA receptors; read-out: efficacy, % of control current (GABA EC3-5 = 100%), α4β3γ2, 1 nM
  activity at 0.001 µM: 101 ± 1.8%
α4β3γ2 GABAA receptors; read-out: efficacy, % of control current (GABA EC3-5 = 100%), α4β3γ2, 3 nM
  activity at 0.003 µM: 96.3 ± 8%
α4β3γ2 GABAA receptors; read-out: efficacy, % of control current (GABA EC3-5 = 100%), α4β3γ2, 10 nM
  activity at 0.01 µM: 100 ± 2.2%
α4β3γ2 GABAA receptors; read-out: efficacy, % of control current (GABA EC3-5 = 100%), α4β3γ2, 30 nM
  activity at 0.03 µM: 104 ± 4.4%
α4β3γ2 GABAA receptors; read-out: efficacy, % of control current (GABA EC3-5 = 100%), α4β3γ2, 100 nM
  activity at 0.1 µM: 120 ± 10.1%
α4β3γ2 GABAA receptors; read-out: efficacy, % of control current (GABA EC3-5 = 100%), α4β3γ2, 1 µM
  activity at 1 µM: 162 ± 16.3%
α4β3γ2 GABAA receptors; read-out: efficacy, % of control current (GABA EC3-5 = 100%), α4β3γ2, 10 µM
  activity at 10 µM: 267 ± 16.8%
α4β3γ2 GABAA receptors; read-out: efficacy, % of control current (GABA EC3-5 = 100%), α4β3γ2, 30 µM
  activity at 30 µM: 315 ± 30.1%
α2β3γ2 GABAA receptors
  EC50: 5.5 µM
α2β3γ2 GABAA receptors; read-out: efficacy, % of control current (GABA EC3-5 = 100%), α2β3γ2, 1 nM
  activity at 0.001 µM: 100%
α2β3γ2 GABAA receptors; read-out: efficacy, % of control current (GABA EC3-5 = 100%), α2β3γ2, 10 nM
  activity at 0.01 µM: 108 ± 4.2%
α2β3γ2 GABAA receptors; read-out: efficacy, % of control current (GABA EC3-5 = 100%), α2β3γ2, 100 nM
  activity at 0.1 µM: 111 ± 2.3%
α2β3γ2 GABAA receptors; read-out: efficacy, % of control current (GABA EC3-5 = 100%), α2β3γ2, 300 nM
  activity at 0.3 µM: 134%
α2β3γ2 GABAA receptors; read-out: efficacy, % of control current (GABA EC3-5 = 100%), α2β3γ2, 1 µM
  activity at 1 µM: 137 ± 5.5%
α2β3γ2 GABAA receptors; read-out: efficacy, % of control current (GABA EC3-5 = 100%), α2β3γ2, 10 µM
  activity at 10 µM: 470 ± 50%
α2β3γ2 GABAA receptors; read-out: efficacy, % of control current (GABA EC3-5 = 100%), α2β3γ2, 30 µM
  activity at 30 µM: 580%
α1β1 GABAA receptors; read-out: efficacy, % of control current (GABA EC3-5 = 100%), 300 nM
  activity at 0.3 µM: 194 ± 23.3%
α1β1 GABAA receptors
  Hill slope (nH): 1.0±0.4
α1β1 GABAA receptors; co-applied with GABA EC3-5, read-out: EC50
  EC50: 0.77 µM
α1β1 GABAA receptors; log of EC50, sign as printed, read-out: LogEC50 (converted)
  EC50: 0.759 µM
